Data reported in patent publication US9670210B2, “Cyclopropylamines as LSD1 inhibitors” (Incyte Corporation, priority 2014, dated 2017).

Biological target: LSD-1 enzyme (Homo sapiens (Human), UniProt O60341)
Protocol: LSD1 Histone Demethylase Biochemical Assay
LANCE LSD1/KDM1A demethylase assay-10 μL of 1 nM LSD-1 enzyme (ENZO BML-SE544-0050) in the assay buffer (50 mM Tris, pH 7.5, 0.01% Tween-20, 25 mM NaCl, 5 mM DTT) were preincubated for 1 hour at 25° C. with 0.8 μL compound/DMSO dotted in black 384 well polystyrene plates. […] After stopping the reactions plates were incubated for 30 minutes and read on a PHERAstar FS plate reader (BMG Labtech).

Fc1ccc(CN2CC(CN[C@@H]3C[C@H]3c3ccccc3)C2)cc1 (relative stereo) [Example 2, N-{[1-(4-Fluorobenzyl)azetidin-3-yl]methyl}-trans-2-phenylcyclopropanamine]
IC50: < 100 nM

Fc1ccc(CN2CCC(N[C@@H]3C[C@H]3c3ccccc3)CC2)cc1 (relative stereo) [Example 5, 1-(4-Fluorobenzyl)-N-(trans-2-phenylcyclopropyl)piperidin-4-amine]
IC50: < 100 nM

N#Cc1ccc(CN2CC(CN[C@@H]3C[C@H]3c3ccccc3)C2)cc1 (relative stereo) [Example 6, 4-[(3-{[(trans-2-Phenylcyclopropyl)amino]methyl}azetidin-1-yl)methyl]benzonitrile]
IC50: < 100 nM

N#Cc1cccc(CN2CC(CN[C@@H]3C[C@H]3c3ccccc3)C2)c1 (relative stereo) [Example 7, 3-[(3-{[(trans-2-Phenylcyclopropyl)amino]methyl}azetidin-1-yl)methyl]benzonitrile]
IC50: < 100 nM

N#CCC1(CN[C@@H]2C[C@H]2c2ccccc2)CCN(C(=O)c2cccc(F)c2)CC1 (relative stereo) [Example 8, (1-(3-Fluorobenzoyl)-4-{[(trans-2-phenylcyclopropyl)amino]methyl}piperidin-4-yl)acetonitrile]
IC50: < 100 nM

N#CCC1(CN[C@@H]2C[C@H]2c2ccccc2)CCN(Cc2cccc(F)c2)CC1 (relative stereo) [Example 9, (1-(3-Fluorobenzyl)-4-{[(trans-2-phenylcyclopropyl)amino]methyl}piperidin-4-yl)acetonitrile]
IC50: < 100 nM

N#CC1CCN(C(=O)N2CC(CN[C@@H]3C[C@H]3c3ccccc3)C2)CC1 (relative stereo) [Example 12, 1-[(3-{[(trans-2-Phenylcyclopropyl)amino]methyl}azetidin-1-yl)carbonyl]piperidine-4-carbonitrile]
IC50: < 100 nM

O=C(N1CCC(C(F)(F)F)CC1)N1CC(CN[C@@H]2C[C@H]2c2ccccc2)C1 (relative stereo) [Example 13, Trans-2-phenyl-N-[(1-{[4-(trifluoromethyl)piperidin-1-yl]carbonyl}azetidin-3-yl)methyl]cyclopropanamine]
IC50: < 100 nM

N#CC1(c2ccccc2)CCN(C(=O)N2CC(CN[C@@H]3C[C@H]3c3ccccc3)C2)CC1 (relative stereo) [Example 16, 4-Phenyl-1-[(3-{[(trans-2-phenylcyclopropyl)amino]methyl}azetidin-1-yl)carbonyl]piperidine-4-carbonitrile]
IC50: < 100 nM

O=C(N1CCC(O)(c2ccccc2)CC1)N1CC(CN[C@@H]2C[C@H]2c2ccccc2)C1 (relative stereo) [Example 17, 4-Phenyl-1-[(3-{[(trans-2-phenylcyclopropyl)amino]methyl}azetidin-1-yl)carbonyl]piperidin-4-ol]
IC50: < 100 nM

O=C(N1CCC2(CC1)CNc1ccc(F)cc12)N1CC(CN[C@@H]2C[C@H]2c2ccccc2)C1 (relative stereo) [Example 18, N-({1-[(5-Fluoro-1,2-dihydro-spiro[indole-3,4′-piperidin]-1′-yl)carbonyl]azetidin-3-yl}methyl)-trans-2-phenylcyclopropanamine]
IC50: < 100 nM

O=C(Nc1ccccc1F)N1CC(CN[C@@H]2C[C@H]2c2ccccc2)C1 (relative stereo) [Example 19, N-(2-Fluorophenyl)-3-{[(trans-2-phenylcyclopropyl)amino]methyl}azetidine-1-carboxamide]
IC50: < 100 nM

O=C(Nc1cccc(F)c1)N1CC(CN[C@@H]2C[C@H]2c2ccccc2)C1 (relative stereo) [Example 20, N-(3-Fluorophenyl)-3-{[(trans-2-phenylcyclopropyl)amino]methyl}azetidine-1-carboxamide]
IC50: < 100 nM

O=C(Nc1ccc(F)cc1)N1CC(CN[C@@H]2C[C@H]2c2ccccc2)C1 (relative stereo) [Example 21, N-(4-Fluorophenyl)-3-{[(trans-2-phenylcyclopropyl)amino]methyl}azetidine-1-carboxamide]
IC50: < 100 nM

COc1ccc(NC(=O)N2CC(CN[C@@H]3C[C@H]3c3ccccc3)C2)cc1 (relative stereo) [Example 22, N-(4-Methoxyphenyl)-3-{[(trans-2-phenylcyclopropyl)amino]methyl}azetidine-1-carboxamide]
IC50: < 100 nM

COc1cccc(NC(=O)N2CC(CN[C@@H]3C[C@H]3c3ccccc3)C2)c1 (relative stereo) [Example 23, N-(3-Methoxyphenyl)-3-{[(trans-2-phenylcyclopropyl)amino]methyl}azetidine-1-carboxamide]
IC50: < 100 nM

COc1ccccc1NC(=O)N1CC(CN[C@@H]2C[C@H]2c2ccccc2)C1 (relative stereo) [Example 24, N-(2-Methoxyphenyl)-3-{[(trans-2-phenylcyclopropyl)amino]methyl}azetidine-1-carboxamide]
IC50: < 100 nM

N#Cc1ccc(C(=O)N2CC(CN[C@@H]3C[C@H]3c3ccccc3)C2)cc1 (relative stereo) [Example 25, 4-[(3-{[(trans-2-Phenylcyclopropyl)amino]methyl}azetidin-1-yl)carbonyl]benzonitrile]
IC50: < 100 nM

N#Cc1cccc(C(=O)N2CC(CN[C@@H]3C[C@H]3c3ccccc3)C2)c1 (relative stereo) [Example 26, 3-[(3-{[(trans-2-Phenylcyclopropyl)amino]methyl}azetidin-1-yl)carbonyl]benzonitrile]
IC50: < 100 nM

COc1cccc(C(=O)N2CC(CN[C@@H]3C[C@H]3c3ccccc3)C2)c1 (relative stereo) [Example 27, N-{[1-(3-Methoxybenzoyl)azetidin-3-yl]methyl}-trans-2-phenylcyclopropanamine]
IC50: < 100 nM

O=C(c1ccc(F)cc1)N1CC(CN[C@@H]2C[C@H]2c2ccccc2)C1 (relative stereo) [Example 28, N-{[1-(4-Fluorobenzoyl)azetidin-3-yl]methyl}-trans-2-phenylcyclopropanamine]
IC50: < 100 nM

O=C(c1cccc(F)c1)N1CC(CN[C@@H]2C[C@H]2c2ccccc2)C1 (relative stereo) [Example 29, N-{[1-(3-Fluorobenzoyl)azetidin-3-yl]methyl}-trans-2-phenylcyclopropanamine]
IC50: < 100 nM

O=S(=O)(c1ccc(OC(F)(F)F)cc1)N1CC(CN[C@@H]2C[C@H]2c2ccccc2)C1 (relative stereo) [Example 30, Trans-2-phenyl-N-[(1-{[4-(trifluoromethoxy)phenyl]sulfonyl}azetidin-3-yl)methyl]cyclopropanamine]
IC50: < 100 nM

O=C(N1CC(CNC2CC2c2ccccc2)C1)N1CCC[C@@]2(CCN(C3CCC(O)CC3)C2=O)C1 (stereo in doubt) [Example 10, (5R)-2-(cis-4-Hydroxycyclohexyl)-7-[(3-{[(trans-2-phenylcyclopropyl)amino]methyl}azetidin-1-yl)carbonyl]-2,7-diazaspiro[4.5]decan-1-one]
IC50: < 100 nM

O=C(N1CC(CNC2CC2c2ccccc2)C1)N1CCC[C@]2(CCN(C3CCC(O)CC3)C2=O)C1 (stereo partly drawn) [Example 11, (5S)-2-(cis-4-Hydroxycyclohexyl)-7-[(3-{[(trans-2-phenylcyclopropyl)amino]methyl}azetidin-1-yl)carbonyl]-2,7-diazaspiro[4.5]decan-1-one]
IC50: < 100 nM

O=C(N1CC(CNC2CC2c2ccccc2)C1)N1CCCC(Oc2ccccc2)C1 (stereo not drawn) [Example 14, N-({1-[(3-Phenoxypiperidin-1-yl)carbonyl]azetidin-3-yl}methyl)-trans-2-phenylcyclopropanamine]
IC50: < 100 nM

COC1CCCN(C(=O)N2CC(CNC3CC3c3ccccc3)C2)C1 (stereo not drawn) [Example 15, N-({1-[(3-Methoxypiperidin-1-yl)carbonyl]azetidin-3-yl}methyl)-trans-2-phenylcyclopropanamine]
IC50: < 100 nM

O=C(O)C1(CN2CCC(CN[C@@H]3C[C@H]3c3ccccc3)(Cc3ccc(F)cc3)CC2)CC1 [Example 31, 1-{[4-(4-fluorobenzyl)-4-({[(1R,2S)-2-phenylcyclopropyl]amino}methyl)piperidin-1-yl]methyl}cyclopropanecarboxylic acid]
IC50: < 100 nM

O=C(O)C1(CN2CCC(CN[C@@H]3C[C@H]3c3ccccc3)(Cc3ccc(F)cc3)CC2)CCC1 [Example 32, 1-{[4-(4-fluorobenzyl)-4-({[(1R,2S)-2-phenylcyclopropyl]amino}methyl)piperidin-1-yl]methyl}cyclobutanecarboxylic acid]
IC50: < 100 nM

N[C@H]1CC[C@H](C(=O)N2CCC(CN[C@@H]3C[C@H]3c3ccccc3)(Cc3ccc(F)cc3)CC2)CC1 [Example 33, trans-4-{[4-(4-fluorobenzyl)-4-({[(1R,2S)-2-phenylcyclopropyl]amino}methyl)piperidin-1-yl]carbonyl}cyclohexanamine]
IC50: < 100 nM

NC1(C(=O)N2CCC(CN[C@@H]3C[C@H]3c3ccccc3)(Cc3ccc(F)cc3)CC2)CCC1 [Example 34, 1-{[4-(4-fluorobenzyl)-4-({[(1R,2S)-2-phenylcyclopropyl]amino}methyl)piperidin-1-yl]carbonyl}cyclobutanamine]
IC50: < 100 nM

COCC1(CN[C@@H]2C[C@H]2c2ccccc2)CCN(CC2(C(=O)O)CC2)CC1 [Example 35, 1-{[4-(methoxymethyl)-4-({[(1R,2S)-2-phenylcyclopropyl]amino}methyl)piperidin-1-yl]methyl}cyclopropanecarboxylic acid]
IC50: < 100 nM

COCC1(CN[C@@H]2C[C@H]2c2ccccc2)CCN(CC2(C(=O)O)CCCC2)CC1 [Example 37, 1-{[4-(methoxymethyl)-4-({[(1R,2S)-2-phenylcyclopropyl]amino}methyl)piperidin-1-yl]methyl}cyclopentanecarboxylic acid]
IC50: < 100 nM

COCC1(CN[C@@H]2C[C@H]2c2ccccc2)CCN(C(=O)[C@@H]2CCCN2C)CC1 [Example 38, (1R,2S)—N-[(4-(methoxymethyl)-1-{[(2S)-1-methylpyrrolidin-2-yl]carbonyl}piperidin-4-yl)methyl]-2-phenylcyclopropanamine]
IC50: < 100 nM

COCC1(CN[C@@H]2C[C@H]2c2ccccc2)CCN(C(=O)c2cn(C)cn2)CC1 [Example 39, (1R,2S)—N-({4-(methoxymethyl)-1-[(1-methyl-1H-imidazol-4-yl)carbonyl]piperidin-4-yl}methyl)-2-phenylcyclopropanamine]
IC50: < 100 nM
